The values that follow come from patent EP4745118A1, “HYDROXAMIC ACID COMPOUND OR PHARMACEUTICALLY ACCEPTABLE SALT THEREOF, AND USE THEREOF AND PREPARATION METHOD THEREFOR” (priority 2023, dated 2025).

Converted amounts (≈) assume the structure as drawn. Where only a bound is given, the exact number is not on record here.

Broadly, the MIC is the lowest concentration that inhibits growth of the organism.

The first assay relates to Shigella flexneri. Kind of assay: In vitro antibacterial activity, agar dilution method (MIC). In kind it is cell-based. As to conditions: ATCC12022, Shigella flexneri ATCC 12022, 35°C, 18 hours, read-out: MIC. The procedure:
According to the relevant operating procedures of the Clinical Laboratory Standards Institute (CLSI) in the United States, an antimicrobial susceptibility testing was conducted using the agar dilution method. A 1920 µg/mL stock solution was serially diluted twofold with sterile water to obtain dilutions of 960, 480, 240, 120, 60, 30, 15, 7.5, 3.75, 1.88, 0.94, 0.47 µg/mL, and 1 mL of the dilution was taken respectively from the dilutions with different concentrations and added to a Petri dish, to which 14 mL of melted MH agar medium was added and mixed thoroughly, and the final concentration of the drug in the petri dish is 128, 64, 32, 16, 8, 4, 2, 1, 0.5, 0.25, 0.12, 0.06, and 0.03 µ g/mL, respectively. The agar was allowed to solidify and set aside for later use.
(§1) The test bacteria were propagated in broth and adjusted to a turbidity of 0.5 McFarland (approximately 1-2 × 10^8 CFU/mL) using a turbidimeter before inoculation. The 0.5 McFarland bacterial solution was then diluted 10-fold in broth (approximately 1-2 × 10^7 CFU/mL). A multipoint inoculator was used to inoculate the above bacterial solution onto a series of plates containing different concentrations of drugs (with an inoculation amount of approximately 10^4 CFU per inoculation site). After incubation at a constant temperature of 35°C for 18 hours, results were observed. The minimum concentration of drugs contained in sterile growth plates was determined as the Minimal Inhibitory Concentration (MIC).
In the case of `NCC[C@H](O)C(=O)N[C@@H]1C[C@H](N)[C@@H](O[C@H]2O[C@H](CN)[C@@H](O)[C@H](O)[C@H]2O)[C@H](O)[C@H]1O[C@H]1O[C@H](CO)[C@@H](O)[C@H](N)[C@H]1O` [Amikacin], the MIC worked out at 4 µg/mL (≈ 6.83 µM).

The test system of a further assay is Klebsiella pneumoniae. The assay is described as above. In kind it is cell-based. As to conditions: Klebsiella pneumoniae, 18 h, Klebsiella pneumoniae 09-20 (mcr-1); agar dilution, 35°C, 18 hours; read-out: MIC. As to the method:
(§2) According to the relevant operating procedures of the Clinical Laboratory Standards Institute (CLSI) in the United States, an antimicrobial susceptibility testing was conducted using the agar dilution method. […]. The agar was allowed to solidify and set aside for later use.
as §1
For orientation: Agar dilution tests growth on a series of plates holding different concentrations.
With `NCC[C@H](O)C(=O)N[C@@H]1C[C@H](N)[C@@H](O[C@H]2O[C@H](CN)[C@@H](O)[C@H](O)[C@H]2O)[C@H](O)[C@H]1O[C@H]1O[C@H](CO)[C@@H](O)[C@H](N)[C@H]1O` [Amikacin], the minimal inhibitory concentration (MIC) is over 128 µg/mL.

Still in this assay, the particulars now being: Klebsiella pneumoniae, 18 h, Klebsiella pneumoniae 17-R27 (CRE); agar dilution, 35°C, 18 hours; read-out: MIC.
For `NCC[C@H](O)C(=O)N[C@@H]1C[C@H](N)[C@@H](O[C@H]2O[C@H](CN)[C@@H](O)[C@H](O)[C@H]2O)[C@H](O)[C@H]1O[C@H]1O[C@H](CO)[C@@H](O)[C@H](N)[C@H]1O` [Amikacin], the minimal inhibitory concentration (MIC) turned out to be 2 µg/mL (≈ 3.42 µM).

Still in this assay, the particulars now being: Klebsiella pneumoniae, 18 h, Klebsiella pneumoniae 18-8 (ESBLs-producing); agar dilution, 35°C, 18 hours; read-out: MIC.
Take `NCC[C@H](O)C(=O)N[C@@H]1C[C@H](N)[C@@H](O[C@H]2O[C@H](CN)[C@@H](O)[C@H](O)[C@H]2O)[C@H](O)[C@H]1O[C@H]1O[C@H](CO)[C@@H](O)[C@H](N)[C@H]1O` [Amikacin]: the minimum inhibitory concentration (MIC) is 1 µg/mL (≈ 1.71 µM).

The assay is the same for the next values; noted with them: Klebsiella pneumoniae, ATCC700603, 18 h, Klebsiella pneumoniae ATCC 700603 (ESBLs-producing); agar dilution, 35°C, 18 hours; read-out: MIC.
On to `NCC[C@H](O)C(=O)N[C@@H]1C[C@H](N)[C@@H](O[C@H]2O[C@H](CN)[C@@H](O)[C@H](O)[C@H]2O)[C@H](O)[C@H]1O[C@H]1O[C@H](CO)[C@@H](O)[C@H](N)[C@H]1O` [Amikacin], for which the MIC turned out to be 1 µg/mL (≈ 1.71 µM).

The same assay, now with this note: Klebsiella pneumoniae, ATCCBAA2146, 18 h, Klebsiella pneumoniae ATCC BAA-2146 (CRE, NDM-1-producing); agar dilution, 35°C, 18 hours; read-out: MIC.
As for `NCC[C@H](O)C(=O)N[C@@H]1C[C@H](N)[C@@H](O[C@H]2O[C@H](CN)[C@@H](O)[C@H](O)[C@H]2O)[C@H](O)[C@H]1O[C@H]1O[C@H](CO)[C@@H](O)[C@H](N)[C@H]1O` [Amikacin], the MIC was over 128 µg/mL.

In another assay the test system is Enterobacter aerogenes. The assay is described as above. Type of assay: cell-based. Conditions: Klebsiella aerogenes, ATCC13048; Enterobacter aerogenes ATCC 13048; agar dilution, 35°C, 18 hours; read-out: MIC. As to the method:
as §2, §1
In the case of `NCC[C@H](O)C(=O)N[C@@H]1C[C@H](N)[C@@H](O[C@H]2O[C@H](CN)[C@@H](O)[C@H](O)[C@H]2O)[C@H](O)[C@H]1O[C@H]1O[C@H](CO)[C@@H](O)[C@H](N)[C@H]1O` [Amikacin], the MIC is 1 µg/mL (≈ 1.71 µM).

The subject of a further assay is Proteus vulgaris. The assay is described as above. In kind it is cell-based. Conditions: ATCC29905; Proteus vulgaris ATCC 29905; agar dilution, 35°C, 18 hours; read-out: MIC. The procedure:
as §2, §1
With `NCC[C@H](O)C(=O)N[C@@H]1C[C@H](N)[C@@H](O[C@H]2O[C@H](CN)[C@@H](O)[C@H](O)[C@H]2O)[C@H](O)[C@H]1O[C@H]1O[C@H](CO)[C@@H](O)[C@H](N)[C@H]1O` [Amikacin], the MIC amounted to 1 µg/mL (≈ 1.71 µM).

A further assay concerns Escherichia coli. The assay is described as above. As to conditions: Escherichia coli, 18 h, Escherichia coli 13-43 (mcr-1); agar dilution, 35°C, 18 hours; read-out: MIC. Type of assay: cell-based. The procedure:
as §2, §1
In the case of `NCC[C@H](O)C(=O)N[C@@H]1C[C@H](N)[C@@H](O[C@H]2O[C@H](CN)[C@@H](O)[C@H](O)[C@H]2O)[C@H](O)[C@H]1O[C@H]1O[C@H](CO)[C@@H](O)[C@H](N)[C@H]1O` [Amikacin], the minimum inhibitory concentration (MIC) worked out at 4 µg/mL (≈ 6.83 µM).

Still in this assay, the particulars now being: Escherichia coli, 18 h, Escherichia coli 17-R28 (CRE, NDM-1-producing); agar dilution, 35°C, 18 hours; read-out: MIC.
Turning to `NCC[C@H](O)C(=O)N[C@@H]1C[C@H](N)[C@@H](O[C@H]2O[C@H](CN)[C@@H](O)[C@H](O)[C@H]2O)[C@H](O)[C@H]1O[C@H]1O[C@H](CO)[C@@H](O)[C@H](N)[C@H]1O` [Amikacin], the MIC was over 128 µg/mL.

The assay is the same for the next values; noted with them: Escherichia coli, ATCC2469, 18 h, Escherichia coli ATCC 2469 (CRE, NDM-1-producing); agar dilution, 35°C, 18 hours; read-out: MIC.
For `NCC[C@H](O)C(=O)N[C@@H]1C[C@H](N)[C@@H](O[C@H]2O[C@H](CN)[C@@H](O)[C@H](O)[C@H]2O)[C@H](O)[C@H]1O[C@H]1O[C@H](CO)[C@@H](O)[C@H](N)[C@H]1O` [Amikacin], the minimal inhibitory concentration (MIC) was over 128 µg/mL.

Still in this assay, the particulars now being: Escherichia coli, ATCC35218, 18 h, Escherichia coli ATCC 35218 (ESBLs-producing); agar dilution, 35°C, 18 hours; read-out: MIC.
For the compound `NCC[C@H](O)C(=O)N[C@@H]1C[C@H](N)[C@@H](O[C@H]2O[C@H](CN)[C@@H](O)[C@H](O)[C@H]2O)[C@H](O)[C@H]1O[C@H]1O[C@H](CO)[C@@H](O)[C@H](N)[C@H]1O` [Amikacin], the MIC was determined as 4 µg/mL (≈ 6.83 µM).

The subject of another assay is Pantoea agglomerans. Described as above. Type of assay: cell-based. Conditions: ATCC27993; Pantoea agglomerans ATCC 27993; agar dilution, 35°C, 18 hours; read-out: MIC. As to the method:
as §2, §1
In the case of `NCC[C@H](O)C(=O)N[C@@H]1C[C@H](N)[C@@H](O[C@H]2O[C@H](CN)[C@@H](O)[C@H](O)[C@H]2O)[C@H](O)[C@H]1O[C@H]1O[C@H](CO)[C@@H](O)[C@H](N)[C@H]1O` [Amikacin], the MIC was determined as 2 µg/mL (≈ 3.42 µM).

A further assay deals with Proteus mirabilis. The assay is described as above. In kind it is cell-based. As to conditions: ATCC49565; Proteus mirabilis ATCC 49565; agar dilution, 35°C, 18 hours; read-out: MIC. The procedure:
as §2, §1
For the compound `NCC[C@H](O)C(=O)N[C@@H]1C[C@H](N)[C@@H](O[C@H]2O[C@H](CN)[C@@H](O)[C@H](O)[C@H]2O)[C@H](O)[C@H]1O[C@H]1O[C@H](CO)[C@@H](O)[C@H](N)[C@H]1O` [Amikacin], the MIC came out at 2 µg/mL (≈ 3.42 µM).

For a further assay, the system named is Citrobacter freundii. The assay is described as above. In kind it is cell-based. Conditions: ATCC43864; Citrobacter freundii ATCC 43864; agar dilution, 35°C, 18 hours; read-out: MIC. The procedure: as §2, §1
As to `NCC[C@H](O)C(=O)N[C@@H]1C[C@H](N)[C@@H](O[C@H]2O[C@H](CN)[C@@H](O)[C@H](O)[C@H]2O)[C@H](O)[C@H]1O[C@H]1O[C@H](CO)[C@@H](O)[C@H](N)[C@H]1O` [Amikacin], the MIC is 2 µg/mL (≈ 3.42 µM).

Another assay relates to Serratia marcescens. Described as above. Type of assay: cell-based. As to conditions: ATCC21074; Serratia marcescens ATCC 21074; agar dilution, 35°C, 18 hours; read-out: MIC. The procedure:
as §2, §1
As for `NCC[C@H](O)C(=O)N[C@@H]1C[C@H](N)[C@@H](O[C@H]2O[C@H](CN)[C@@H](O)[C@H](O)[C@H]2O)[C@H](O)[C@H]1O[C@H]1O[C@H](CO)[C@@H](O)[C@H](N)[C@H]1O` [Amikacin], the MIC came out at 2 µg/mL (≈ 3.42 µM).

For a further assay, the system named is Pseudomonas aeruginosa. The assay is described as above. In kind it is cell-based. Conditions: Pseudomonas aeruginosa PAO1; agar dilution, 35°C, 18 hours; read-out: MIC. The procedure: as §2, §1
On to `NCC[C@H](O)C(=O)N[C@@H]1C[C@H](N)[C@@H](O[C@H]2O[C@H](CN)[C@@H](O)[C@H](O)[C@H]2O)[C@H](O)[C@H]1O[C@H]1O[C@H](CO)[C@@H](O)[C@H](N)[C@H]1O` [Amikacin], for which the minimum inhibitory concentration (MIC) was 2 µg/mL (≈ 3.42 µM).

A further assay relates to Enterobacter cloacae. The assay is described as above. Conditions: Enterobacter cloacae CDC1000654 (NDM-1-producing); agar dilution, 35°C, 18 hours; read-out: MIC. In kind it is cell-based. As to the method:
According to the relevant operating procedures of the Clinical Laboratory Standards Institute (CLSI) in the United States, an antimicrobial susceptibility testing was conducted using the agar dilution method. […] The agar was allowed to solidify and set aside for later use.
as §1
In the case of `NCC[C@H](O)C(=O)N[C@@H]1C[C@H](N)[C@@H](O[C@H]2O[C@H](CN)[C@@H](O)[C@H](O)[C@H]2O)[C@H](O)[C@H]1O[C@H]1O[C@H](CO)[C@@H](O)[C@H](N)[C@H]1O` [Amikacin], the MIC was over 128 µg/mL.
